# Data from PubChem BioAssay AID1259408 (Genetic Toxicology Data Bank (GENE-TOX), 2018).
# Active and inactive are the calls of the source. No rule for the calls is given here.
# Tested on: GENE-TOX genotoxicity assays, various organisms and cells
# Assay: GENE-TOX mutagenicity studies
# Details: for call: Assay Type: In vivo carcinogenicity studies, Assay Code: CCG+
# [1] = Species/Cell Type: Drosophila melanogaster, Assay Type: Sex-linked recessive lethal gene mutation, Assay Code: SRL+, Evaluation Type: Evaluation A (Pre-1980)
# [2] = Species/Cell Type: Escherichia coli polA (W3119 vs P3478), Assay Type: Rec-assay, DNA effects (bacterial DNA repair), Assay Code: RE1T, Evaluation Type: Evaluation A (Pre-1980)
# [3] = Species/Cell Type: Neurospora crassa, Assay Type: Reverse gene mutation, Assay Code: NER+, Evaluation Type: Evaluation A (Pre-1980)
# [4] = Species/Cell Type: Nonhuman, Evaluation Type: Evaluation A (Pre-1980)
# [5] = Species/Cell Type: Saccharomyces cerevisiae, Assay Type: Mitotic recombination or gene conversion, Assay Code: YEC+, Evaluation Type: Evaluation A (Pre-1980)
# [6] = Species/Cell Type: Salmonella typhimurium (one or more of the five standard strains: TA98, TA100, TA1535, TA1537, and TA1538), Assay Type: Histidine reverse gene mutation, Ames assay, Assay Code: SAL-, Evaluation Type: Evaluation A (Pre-1980)
# [7] = Species/Cell Type: Salmonella typhimurium, Assay Type: Forward and reverse gene mutation, host-mediated assay, Assay Code: HMA-, Evaluation Type: Evaluation A (Pre-1980)
# [8] = Species/Cell Type: Salmonella typhimurium (one or more of the five standard strains: TA98, TA100, TA1535, TA1537, and TA1538), Assay Type: Histidine reverse gene mutation, Ames assay, Assay Code: SAL+, Evaluation Type: Evaluation A (Pre-1980)
# [9] = Species/Cell Type: Salmonella typhimurium, Assay Type: Forward and reverse gene mutation, host-mediated assay, Assay Code: HMA+, Evaluation Type: Evaluation A (Pre-1980)
# [10] = Species/Cell Type: Salmonella typhimurium (one or more of the five standard strains: TA98, TA100, TA1535, TA1537, and TA1538), Assay Type: Histidine reverse gene mutation, Ames assay, Assay Code: SAL+*, Activation: With metabolic activation, Evaluation Type: Evaluation A (Pre-1980)
# [11] = Species/Cell Type: Saccharomyces cerevisiae, Assay Type: Mitotic recombination or gene conversion, Assay Code: YEH-, Evaluation Type: Evaluation A (Pre-1980)
compound,measurement,setting,value
CCOC(N)=O,mutagenic call,"Species/Cell Type: Drosophila melanogaster, Assay Type: Aneuploidy, sex chromosome gain, chromosome aberrations, Assay Code: DAG-M, Evaluation Type: Evaluation A (Pre-1980)",inactive; negative
same,mutagenic call,"Species/Cell Type: Drosophila melanogaster, Assay Type: Aneuploidy, whole sex chromosome loss, chromosome aberrations, Assay Code: DAC+M, Evaluation Type: Evaluation A (Pre-1980)",active; positive
same,mutagenic call,[1],active; positive
same,mutagenic call,"Species/Cell Type: Drosophila melanogaster, Sex: Male, Assay Type: Heritable translocation test, chromosome aberrations, Assay Code: DHT+, Evaluation Type: Evaluation A (Pre-1980)",active; positive
same,mutagenic call,"Species/Cell Type: Escherichia coli WP2, Assay Type: Tryptophan reverse gene mutation, Assay Code: WP2-, Evaluation Type: Evaluation A (Pre-1980)",inactive; negative
same,mutagenic call,"Species/Cell Type: Escherichia coli polA (W3110 vs P3478), Assay Type: Rec-assay, DNA effects (bacterial DNA repair), Assay Code: RE2-, Evaluation Type: Evaluation A (Pre-1980)",inactive; negative
same,mutagenic call,[2],no conclusion
same,mutagenic call,"Species/Cell Type: Fischer rat embryo (RLV/1706) cells, Assay Type: Cell transformation, viral enhanced, Assay Code: CTR+, Evaluation Type: Evaluation A (Pre-1980)",active; positive
same,mutagenic call,"Species/Cell Type: Human diploid fibroblasts, Assay Type: Unscheduled DNA synthesis (UDS) in vitro, DNA effects, Assay Code: UDHT, Evaluation Type: Evaluation A (Pre-1980)",no conclusion
same,mutagenic call,"Species/Cell Type: Human lymphocytes, Assay Type: Sister-chromatid exchange (SCE) in vitro, Assay Code: SCL+D, Dose Response: With dose response, Evaluation Type: Evaluation B (Post-1980)",active; positive
same,mutagenic call,"Species/Cell Type: Human, Assay Type: Sister-chromatid exchange (SCE) in vitro, Assay Code: SC1+D, Dose Response: With dose response, Evaluation Type: Evaluation B (Post-1980)",active; positive
same,mutagenic call,"Species/Cell Type: Mammalian polychromatic erythrocytes, Assay Type: Micronucleus test, chromosome aberrations, Assay Code: MNT+, Evaluation Type: Evaluation A (Pre-1980)",active; positive
same,mutagenic call,"Species/Cell Type: Mouse embryo (AKR/ME) cells, Assay Type: Cell transformation, Assay Code: CTK+, Evaluation Type: Evaluation A (Pre-1980)",active; positive
same,mutagenic call,"Species/Cell Type: Mouse, Sex: Male, Assay Type: Sperm morphology, Assay Code: SPI-, Evaluation Type: Evaluation A (Pre-1980)",inactive; negative
same,mutagenic call,[3],active; positive
same,call,[4],active; positive
same,mutagenic call,"Species/Cell Type: Nonhuman, Assay Type: Sister-chromatid exchange (SCE) in vitro, Assay Code: SC2+D, Dose Response: With dose response, Evaluation Type: Evaluation A (Pre-1980)",active; positive
same,mutagenic call,"Species/Cell Type: Nonhuman, Assay Type: Sister-chromatid exchange (SCE) in vivo, Assay Code: SC3+D, Dose Response: With dose response, Evaluation Type: Evaluation B (Post-1980)",active; positive
same,mutagenic call,[5],active; positive
same,mutagenic call,"Species/Cell Type: Saccharomyces cerevisiae, Assay Type: Mitotic recombination or gene conversion, Assay Code: YEH-*, Activation: With metabolic activation, Evaluation Type: Evaluation A (Pre-1980)",inactive; negative
same,mutagenic call,[6],inactive; negative
same,mutagenic call,[7],inactive; negative
same,mutagenic call,"Species/Cell Type: Syrian hamster embryo (SHE) cells, Assay Type: Cell transformation, clonal assay, Assay Code: CTC+*, Activation: With metabolic activation, Evaluation Type: Evaluation A (Pre-1980)",active; positive
CN=C(NC#N)NCCSCc1nc[nH]c1C,mutagenic call,"Species/Cell Type: Human lymphocytes, Assay Type: Sister-chromatid exchange (SCE) in vitro, Assay Code: SCLT, Evaluation Type: Evaluation B (Post-1980)",no conclusion
same,mutagenic call,"Species/Cell Type: Human, Assay Type: Sister-chromatid exchange (SCE) in vitro, Assay Code: SC1T, Evaluation Type: Evaluation B (Post-1980)",no conclusion
same,mutagenic call,"Species/Cell Type: Human, Sex: Male, Assay Type: Sperm morphology, Assay Code: SPHT, Evaluation Type: Evaluation A (Pre-1980)",no conclusion
O=S1(=O)OCCO1,mutagenic call,[8],active; positive
same,mutagenic call,[9],active; positive
CCOC(=O)COc1ccc(Cl)cc1CCl (tested in a mixture with another compound),mutagenic call,"Species/Cell Type: Saccharomyces cerevisiae, Assay Type: Reverse gene mutation, Assay Code: YERT, Evaluation Type: Evaluation A (Pre-1980)",no conclusion
CCOC(=O)CSc1ccc2c3c(cccc13)C(=O)c1ccccc1-2,mutagenic call,[10],active; positive
CCOS(=O)(=O)CCCS(=O)(=O)OCC,mutagenic call,"Species/Cell Type: Arabidopsis species, Assay Type: Gene mutation, Assay Code: ARM+D, Dose Response: With dose response, Evaluation Type: Evaluation A (Pre-1980)",active; positive
same,mutagenic call,"Species/Cell Type: Hordeum vulgare (barley), Assay Type: Chromosome aberrations, Assay Code: HOC+D, Dose Response: With dose response, Evaluation Type: Evaluation A (Pre-1980)",active; positive
Cc1cc(N=Nc2ccc(S(=O)(=O)O)cc2)c(N)cc1N,mutagenic call,[10],active; positive
c1ccc2c(c1)Cc1ccccc1-2,mutagenic call,"Species/Cell Type: Nonhuman, Assay Type: Sister-chromatid exchange (SCE) in vivo, Assay Code: SC3T, Evaluation Type: Evaluation B (Post-1980)",no conclusion
same,mutagenic call,[6],inactive; negative
CC(C)(C)I,mutagenic call,"Species/Cell Type: Escherichia coli polA (W3119 vs P3478), Assay Type: Rec-assay, DNA effects (bacterial DNA repair), Assay Code: RE1+, Evaluation Type: Evaluation A (Pre-1980)",active; positive
O=NN1CCC[C@H]1c1cccnc1,call,[4],active; positive
same,mutagenic call,"Species/Cell Type: Rat primary hepatocytes, Assay Type: Unscheduled DNA synthesis (UDS) in vitro, DNA effects, Assay Code: UDP+, Evaluation Type: Evaluation A (Pre-1980)",active; positive
CC(C)(C)OO,mutagenic call,[3],active; positive
same,mutagenic call,[5],active; positive
same,mutagenic call,"Species/Cell Type: Vicia faba, Assay Type: Chromosome aberrations, Assay Code: VIC+, Evaluation Type: Evaluation A (Pre-1980)",active; positive
C[C@]12CCC(=O)C=C1CC[C@@H]1[C@@H]2CC[C@@]2(C)[C@H]1CC[C@]2(C)O,mutagenic call,"Species/Cell Type: Human, Sex: Male, Assay Type: Sperm morphology, Assay Code: SPH-, Evaluation Type: Evaluation A (Pre-1980)",inactive; negative
CC(C)=CC1C(C(=O)OCc2cccc(Oc3ccccc3)c2)C1(C)C (centres undefined),mutagenic call,"Species/Cell Type: Human diploid fibroblasts, Assay Type: Unscheduled DNA synthesis (UDS) in vitro, DNA effects, Assay Code: UDH-, Evaluation Type: Evaluation A (Pre-1980)",inactive; negative
same,mutagenic call,[11],inactive; negative
COc1cc(C)c(-c2csc(N(C)C(=O)Nc3ccc(Cl)cc3)n2)cc1OC,mutagenic call,[9],active; positive
Nc1ccn([C@H]2C[C@H](O)[C@@H](CO)O2)c(=O)n1,mutagenic call,"Species/Cell Type: Chinese hamster lung (V79) cells, Assay Type: Forward gene mutation at the HPRT or ouabain locus, Assay Code: V79-, Evaluation Type: Evaluation A (Pre-1980)",inactive; negative
same,mutagenic call,"Species/Cell Type: Glycine max (soybean), Assay Type: Gene mutation, Assay Code: GLM-, Evaluation Type: Evaluation A (Pre-1980)",inactive; negative
same,mutagenic call,"Species/Cell Type: Human lymphocytes, Assay Type: Sister-chromatid exchange (SCE) in vitro, Assay Code: SCLT, Evaluation Type: Evaluation A (Pre-1980)",no conclusion
same,mutagenic call,"Species/Cell Type: Human, Assay Type: Sister-chromatid exchange (SCE) in vitro, Assay Code: SC1T, Evaluation Type: Evaluation A (Pre-1980)",no conclusion
same,mutagenic call,"Species/Cell Type: Nonhuman, Assay Type: Sister-chromatid exchange (SCE) in vitro, Assay Code: SC2T, Evaluation Type: Evaluation B (Post-1980)",no conclusion
CS(=O)(=O)OCCNP1(=O)OCCCN1CCCl (centres undefined),mutagenic call,"Species/Cell Type: Mammalian polychromatic erythrocytes, Assay Type: Micronucleus test, chromosome aberrations, Assay Code: MNT+U, Dose Response: Unconfirmed positive response, Evaluation Type: Evaluation A (Pre-1980)",active; positive
Brc1ccccc1,mutagenic call,[2],no conclusion
same,mutagenic call,"Species/Cell Type: Mammalian polychromatic erythrocytes, Assay Type: Micronucleus test, chromosome aberrations, Assay Code: MNT+, Evaluation Type: Evaluation B (Post-1980)",active; positive
same,mutagenic call,[11],inactive; negative
same,mutagenic call,[6],inactive; negative
same,mutagenic call,[7],inactive; negative
same,mutagenic call,"Species/Cell Type: Syrian hamster embryo (SHE) cells, Assay Type: Cell transformation, clonal assay, Assay Code: CTC-, Evaluation Type: Evaluation A (Pre-1980)",inactive; negative
N#[N+]c1nc[nH]c1C(N)=O,mutagenic call,[8],active; positive
CC(C)NNC(=O)c1ccncc1,mutagenic call,"Species/Cell Type: Nonhuman, Assay Type: Sister-chromatid exchange (SCE) in vivo, Assay Code: SC3+, Evaluation Type: Evaluation B (Post-1980)",active; positive
C[N+](=O)[O-],mutagenic call,"Species/Cell Type: Mammalian polychromatic erythrocytes, Assay Type: Micronucleus test, chromosome aberrations, Assay Code: MNTT, Evaluation Type: Evaluation B (Post-1980)",no conclusion
CCN(CC)CCn1nc2c3c(c(C)ccc31)Sc1ccccc1-2,mutagenic call,[1],active; positive
same,mutagenic call,"Species/Cell Type: Mouse lymphoma (L5178Y) cells, Assay Type: Forward gene mutation at the thymidine kinase (TK) locus, chromosome aberrations, Assay Code: L51+, Evaluation Type: Evaluation A (Pre-1980)",active; positive
same,mutagenic call,"Species/Cell Type: Neurospora crassa, Assay Type: Forward gene mutation, Assay Code: NEF+, Evaluation Type: Evaluation A (Pre-1980)",active; positive
C=C(C)CC(C)(C)C,mutagenic call,"Species/Cell Type: Salmonella typhimurium (one or more of the five standard strains: TA98, TA100, TA1535, TA1537, and TA1538), Assay Type: Histidine reverse gene mutation, Ames assay, Assay Code: SALT, Evaluation Type: Evaluation A (Pre-1980)",no conclusion
